Tests used:
onset of REM sleep = assay: Delay of onset of REM sleep after falling asleep in narcoleptic patient; type: in vivo, human (narcoleptic patient); settings: 0.5 mg to 25 mg gaboxadol or salt
Protocol: As mentioned above, people with narcolepsy frequently abnormally enter REM sleep within 15 minutes of falling asleep. […] Without wishing to be bound by any theory, symptoms associated with narcolepsy such as cataplexy, sleep paralysis, hallucinations, and automatic behaviors closely mimic the natural physiologic response that occurs during REM sleep. By inducing a more normal REM sleep architecture in narcoleptic patients, symptoms associated with narcolepsy are reduced or alleviated. […] In embodiments, the delay of onset of REM sleep is about 30 minutes or longer. In embodiments, the delay of onset of REM sleep is about 45 minutes or longer. In embodiments, the delay of onset of REM sleep is about 60 minutes or longer. In embodiments, the delay of onset of REM sleep is about 75 minutes or longer.

[1] = human, in vivo

Oc1noc2c1CCNC2 [gaboxadol, 4,5,6,7-tetrahydroisoxazolo [5,4-c] pyridine-3-ol]
onset of REM sleep after falling asleep (onset of REM sleep): ≥ 30 min | CL for 10 mg IV (in CL/F row) [1]: 438 mL/min
